Source: BindingDB's records for doi:10.1007/s002100000217 (Croissy-Sur-Seine Paris, 2000)
“And” between values parts separate entries of the source, which are not always exact repeats. Identical values can stand only once.

Each compound was assayed against D(3) dopamine receptor (Homo sapiens, UniProt P35462).
Sequence of D(3) dopamine receptor (P35462 as listed by the source): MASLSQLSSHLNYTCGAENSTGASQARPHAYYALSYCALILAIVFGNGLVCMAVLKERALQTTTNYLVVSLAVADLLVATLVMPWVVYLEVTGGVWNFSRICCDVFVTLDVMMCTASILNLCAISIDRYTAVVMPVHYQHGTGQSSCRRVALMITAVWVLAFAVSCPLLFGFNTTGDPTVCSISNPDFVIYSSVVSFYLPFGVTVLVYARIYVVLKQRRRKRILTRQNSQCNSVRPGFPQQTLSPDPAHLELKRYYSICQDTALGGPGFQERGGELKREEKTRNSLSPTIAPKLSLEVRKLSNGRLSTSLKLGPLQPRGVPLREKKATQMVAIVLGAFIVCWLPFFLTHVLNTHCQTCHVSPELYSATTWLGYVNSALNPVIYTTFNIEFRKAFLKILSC
With `N#Cc1ccc2c(c1)[C@H]1CN(CCCCNC(=O)c3ccc(-c4ccccc4)cc3)C[C@@H]1CO2` [S33084] the Ki was 0.302 nM and 0.933 nM and 0.372 nM. With `CCCN(CCC)C1CCc2cc3c(cc2C1)OCC3` (centres undefined) the Ki was 12.3 nM and 33.1 nM and 11.5 nM. In the case of `CCCN1CCO[C@@H]2c3cc(O)ccc3OC[C@H]21`, the Ki is reported as 2.14 nM and 7.59 nM and 3.55 nM. `CCCN(CCC)C1CCc2cc(CS(=O)(=O)c3ccc(OC)cc3)ccc2C1` (centres undefined) [GR218231] was tested, and the Ki was 1.12 nM and 1.95 nM and 1.38 nM.
